From the kinase profiling compilation of Christmann-Franck et al. (2016)

Tests used:
Assay in all cases: KINOMEscan competition binding
Details in all cases: compound 10.0 µM
STK25 (human) = STK25 (human) (UniProt O00506)
LATS2 (human) = LATS2 (human) (UniProt Q9NRM7)
MAPK3 (human) = MAPK3 (human) (UniProt P27361)
GAK (human) = GAK (human) (UniProt O14976)
ACVRL1 (human) = ACVRL1 (human) (UniProt P37023)
CDC42BPA (human) = CDC42BPA (human) (UniProt Q5VT25)
STK24 (human) = STK24 (human) (UniProt Q9Y6E0)
SRC (human) = SRC (human) (UniProt P12931)
TAOK3 (human) = TAOK3 (human) (UniProt Q9H2K8)
PRKX (human) = PRKX (human) (UniProt P51817)
MARK1 (human) = MARK1 (human) (UniProt Q9P0L2)
DAPK2 (human) = DAPK2 (human) (UniProt Q9UIK4)
CHEK2 (human) = CHEK2 (human) (UniProt O96017)
CDK3 (human) = CDK3 (human) (UniProt Q00526)
PRKCE (human) = PRKCE (human) (UniProt Q02156)
RIOK1 (human) = RIOK1 (human) (UniProt Q9BRS2)
MYO3B (human) = MYO3B (human) (UniProt Q8WXR4)
NUAK1 (human) = NUAK1 (human) (UniProt O60285)
[1] = target: JAK2 JH1 catalytic (human) (UniProt O60674)
MAP3K10 (human) = MAP3K10 (human) (UniProt Q02779)
MKNK1 (human) = MKNK1 (human) (UniProt Q9BUB5)
MAPKAPK5 (human) = MAPKAPK5 (human) (UniProt Q8IW41)
TNK1 (human) = TNK1 (human) (UniProt Q13470)
PRKACB (human) = PRKACB (human) (UniProt P22694)
SRPK3 (human) = SRPK3 (human) (UniProt Q9UPE1)
PIM1 (human) = PIM1 (human) (UniProt P11309)
MELK (human) = MELK (human) (UniProt Q14680)
ULK1 (human) = ULK1 (human) (UniProt O75385)
MYLK (human) = MYLK (human) (UniProt Q15746)
FYN (human) = FYN (human) (UniProt P06241)
CaMK1 (human) = CaMK1 (human) (UniProt Q14012)
[2] = target: TYK2 JH1 catalytic (human) (UniProt P29597)
EPHA7 (human) = EPHA7 (human) (UniProt Q15375)
DAPK3 (human) = DAPK3 (human) (UniProt O43293)
CSNK1E (human) = CSNK1E (human) (UniProt P49674)
PAK6 (human) = PAK6 (human) (UniProt Q9NQU5)
TNNI3K (human) = TNNI3K (human) (UniProt Q59H18)
PHKG1 (human) = PHKG1 (human) (UniProt Q16816)
DYRK1B (human) = DYRK1B (human) (UniProt Q9Y463)
AKT3 (human) = AKT3 (human) (UniProt Q9Y243)

Chain of PIM1 (human) (P11309 whole entry, looked up): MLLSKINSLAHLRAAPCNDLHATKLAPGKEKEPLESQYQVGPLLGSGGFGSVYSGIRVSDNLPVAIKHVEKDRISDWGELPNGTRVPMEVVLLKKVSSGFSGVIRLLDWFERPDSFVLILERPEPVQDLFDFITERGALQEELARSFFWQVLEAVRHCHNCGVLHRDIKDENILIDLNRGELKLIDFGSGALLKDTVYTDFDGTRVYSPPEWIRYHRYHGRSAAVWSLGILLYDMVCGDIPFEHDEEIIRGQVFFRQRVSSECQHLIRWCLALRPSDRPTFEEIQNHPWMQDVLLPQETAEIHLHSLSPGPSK
Chain of MARK1 (human) (Q9P0L2 whole entry, looked up): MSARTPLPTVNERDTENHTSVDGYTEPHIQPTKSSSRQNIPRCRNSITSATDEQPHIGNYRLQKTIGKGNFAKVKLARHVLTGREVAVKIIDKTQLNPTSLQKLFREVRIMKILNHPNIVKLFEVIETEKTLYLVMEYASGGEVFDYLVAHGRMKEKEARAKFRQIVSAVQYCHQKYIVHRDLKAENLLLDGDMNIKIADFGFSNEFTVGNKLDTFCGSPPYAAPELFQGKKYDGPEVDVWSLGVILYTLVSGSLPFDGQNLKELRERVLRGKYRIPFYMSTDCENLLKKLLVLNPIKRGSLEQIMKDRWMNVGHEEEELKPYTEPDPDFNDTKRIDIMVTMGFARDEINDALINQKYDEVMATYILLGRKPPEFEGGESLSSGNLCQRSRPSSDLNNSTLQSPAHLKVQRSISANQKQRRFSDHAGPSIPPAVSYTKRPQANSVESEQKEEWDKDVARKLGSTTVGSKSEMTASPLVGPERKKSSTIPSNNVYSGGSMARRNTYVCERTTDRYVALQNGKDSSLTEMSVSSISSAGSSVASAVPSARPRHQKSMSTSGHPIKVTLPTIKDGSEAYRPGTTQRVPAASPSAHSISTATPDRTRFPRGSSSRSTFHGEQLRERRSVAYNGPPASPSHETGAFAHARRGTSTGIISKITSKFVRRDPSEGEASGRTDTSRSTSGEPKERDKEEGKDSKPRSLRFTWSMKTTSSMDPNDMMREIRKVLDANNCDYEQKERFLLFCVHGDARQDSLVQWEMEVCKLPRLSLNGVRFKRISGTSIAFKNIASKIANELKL
Chain of TYK2 JH1 catalytic (human) (P29597 whole entry, looked up): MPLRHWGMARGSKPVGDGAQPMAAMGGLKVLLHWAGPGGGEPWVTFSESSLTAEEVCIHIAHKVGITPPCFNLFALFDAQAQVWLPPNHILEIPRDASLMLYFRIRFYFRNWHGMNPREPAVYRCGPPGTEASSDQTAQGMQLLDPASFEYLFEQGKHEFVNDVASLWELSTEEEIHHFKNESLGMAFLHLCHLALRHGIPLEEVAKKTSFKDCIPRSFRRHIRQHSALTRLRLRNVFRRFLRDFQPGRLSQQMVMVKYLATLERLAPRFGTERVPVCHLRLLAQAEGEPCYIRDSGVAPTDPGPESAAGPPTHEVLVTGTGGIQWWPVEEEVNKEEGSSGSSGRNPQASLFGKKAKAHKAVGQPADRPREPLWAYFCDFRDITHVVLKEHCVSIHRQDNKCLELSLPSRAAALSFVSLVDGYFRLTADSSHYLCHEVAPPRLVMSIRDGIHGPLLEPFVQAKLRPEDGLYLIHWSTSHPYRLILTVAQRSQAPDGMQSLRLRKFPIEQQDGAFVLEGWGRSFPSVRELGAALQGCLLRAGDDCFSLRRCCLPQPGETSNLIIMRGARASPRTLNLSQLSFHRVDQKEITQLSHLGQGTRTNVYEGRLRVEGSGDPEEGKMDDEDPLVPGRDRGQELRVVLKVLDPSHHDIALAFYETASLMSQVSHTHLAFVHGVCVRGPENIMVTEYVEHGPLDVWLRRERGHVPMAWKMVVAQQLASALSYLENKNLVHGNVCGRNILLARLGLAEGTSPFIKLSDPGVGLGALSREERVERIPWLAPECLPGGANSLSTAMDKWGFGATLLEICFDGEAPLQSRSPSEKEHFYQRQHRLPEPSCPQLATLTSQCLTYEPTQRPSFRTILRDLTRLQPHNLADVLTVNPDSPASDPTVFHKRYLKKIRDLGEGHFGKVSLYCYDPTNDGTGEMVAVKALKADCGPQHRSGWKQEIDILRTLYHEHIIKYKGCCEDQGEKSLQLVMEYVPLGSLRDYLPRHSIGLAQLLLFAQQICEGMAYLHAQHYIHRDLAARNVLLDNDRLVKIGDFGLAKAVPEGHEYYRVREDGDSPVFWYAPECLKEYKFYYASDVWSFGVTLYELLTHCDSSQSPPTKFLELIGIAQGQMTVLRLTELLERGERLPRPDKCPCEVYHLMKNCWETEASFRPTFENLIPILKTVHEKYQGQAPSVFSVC
Chain of MAP3K10 (human) (Q02779 whole entry, looked up): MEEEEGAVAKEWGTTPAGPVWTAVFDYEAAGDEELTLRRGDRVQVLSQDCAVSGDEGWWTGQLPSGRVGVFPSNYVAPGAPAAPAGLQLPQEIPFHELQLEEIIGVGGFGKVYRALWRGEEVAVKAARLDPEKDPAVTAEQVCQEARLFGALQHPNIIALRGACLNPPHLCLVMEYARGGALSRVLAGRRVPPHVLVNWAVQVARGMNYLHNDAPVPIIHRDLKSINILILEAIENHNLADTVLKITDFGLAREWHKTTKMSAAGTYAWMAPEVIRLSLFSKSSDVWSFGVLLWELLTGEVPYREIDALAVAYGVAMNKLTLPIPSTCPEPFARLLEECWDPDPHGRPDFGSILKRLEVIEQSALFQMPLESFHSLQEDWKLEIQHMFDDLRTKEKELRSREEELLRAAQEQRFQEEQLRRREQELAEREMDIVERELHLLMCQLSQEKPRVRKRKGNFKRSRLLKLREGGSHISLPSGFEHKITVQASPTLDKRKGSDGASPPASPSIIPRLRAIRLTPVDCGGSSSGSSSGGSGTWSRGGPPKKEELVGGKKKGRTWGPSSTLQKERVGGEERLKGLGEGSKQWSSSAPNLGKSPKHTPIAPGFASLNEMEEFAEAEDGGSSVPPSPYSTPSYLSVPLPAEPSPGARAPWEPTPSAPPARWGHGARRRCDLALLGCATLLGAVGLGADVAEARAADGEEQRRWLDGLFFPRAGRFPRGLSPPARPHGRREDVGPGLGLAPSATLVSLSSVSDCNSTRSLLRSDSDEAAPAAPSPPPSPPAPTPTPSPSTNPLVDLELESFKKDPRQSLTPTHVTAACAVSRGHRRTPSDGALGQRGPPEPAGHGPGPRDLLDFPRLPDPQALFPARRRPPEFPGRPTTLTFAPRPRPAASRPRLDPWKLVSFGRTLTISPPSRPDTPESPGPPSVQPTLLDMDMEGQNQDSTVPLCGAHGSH
Chain of LATS2 (human) (Q9NRM7 whole entry, looked up): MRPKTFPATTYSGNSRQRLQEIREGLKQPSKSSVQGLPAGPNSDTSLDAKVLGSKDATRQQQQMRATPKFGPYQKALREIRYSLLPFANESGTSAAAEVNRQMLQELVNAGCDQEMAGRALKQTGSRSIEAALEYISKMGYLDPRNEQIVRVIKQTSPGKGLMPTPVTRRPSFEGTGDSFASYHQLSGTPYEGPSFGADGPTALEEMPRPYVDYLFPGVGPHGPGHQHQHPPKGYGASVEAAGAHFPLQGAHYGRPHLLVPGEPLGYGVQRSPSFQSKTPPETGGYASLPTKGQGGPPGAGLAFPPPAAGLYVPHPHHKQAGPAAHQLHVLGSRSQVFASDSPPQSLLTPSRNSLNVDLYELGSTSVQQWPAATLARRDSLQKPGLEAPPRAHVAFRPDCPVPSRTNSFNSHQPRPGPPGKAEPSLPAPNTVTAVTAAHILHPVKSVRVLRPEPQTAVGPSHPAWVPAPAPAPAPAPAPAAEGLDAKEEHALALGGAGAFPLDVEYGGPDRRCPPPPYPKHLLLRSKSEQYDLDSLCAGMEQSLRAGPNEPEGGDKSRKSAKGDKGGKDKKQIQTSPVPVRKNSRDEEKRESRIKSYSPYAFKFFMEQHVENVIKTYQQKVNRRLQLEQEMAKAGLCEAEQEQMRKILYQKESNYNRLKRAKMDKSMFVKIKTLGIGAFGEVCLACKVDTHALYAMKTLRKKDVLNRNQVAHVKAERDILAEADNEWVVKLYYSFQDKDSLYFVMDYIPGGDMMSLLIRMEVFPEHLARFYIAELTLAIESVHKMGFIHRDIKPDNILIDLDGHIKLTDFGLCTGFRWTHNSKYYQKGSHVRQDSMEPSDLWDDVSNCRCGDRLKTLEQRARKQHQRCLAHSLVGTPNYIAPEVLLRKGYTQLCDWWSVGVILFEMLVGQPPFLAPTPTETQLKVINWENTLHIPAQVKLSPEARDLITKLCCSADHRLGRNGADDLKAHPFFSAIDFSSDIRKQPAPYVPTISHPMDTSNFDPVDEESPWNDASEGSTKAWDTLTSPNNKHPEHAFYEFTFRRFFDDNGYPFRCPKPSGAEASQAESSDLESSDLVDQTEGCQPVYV
Chain of STK24 (human) (Q9Y6E0 whole entry, looked up): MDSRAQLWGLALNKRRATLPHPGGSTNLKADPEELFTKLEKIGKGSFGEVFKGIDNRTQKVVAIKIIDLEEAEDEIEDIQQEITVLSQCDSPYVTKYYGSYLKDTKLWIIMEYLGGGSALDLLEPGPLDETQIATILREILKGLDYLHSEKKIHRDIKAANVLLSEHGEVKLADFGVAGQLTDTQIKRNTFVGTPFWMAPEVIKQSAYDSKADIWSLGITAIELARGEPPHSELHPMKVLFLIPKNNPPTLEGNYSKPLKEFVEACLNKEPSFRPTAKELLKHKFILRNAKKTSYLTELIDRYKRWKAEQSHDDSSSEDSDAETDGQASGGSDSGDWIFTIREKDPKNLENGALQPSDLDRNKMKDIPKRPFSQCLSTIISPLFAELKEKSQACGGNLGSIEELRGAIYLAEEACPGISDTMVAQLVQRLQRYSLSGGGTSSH

Compound	kinase still bound, per cent of control (STK25 (human)) [%]	kinase still bound, per cent of control (LATS2 (human)) [%]	kinase still bound, per cent of control (MAPK3 (human)) [%]	kinase still bound, per cent of control (GAK (human)) [%]	kinase still bound, per cent of control (ACVRL1 (human)) [%]	kinase still bound, per cent of control (CDC42BPA (human)) [%]	kinase still bound, per cent of control (STK24 (human)) [%]	kinase still bound, per cent of control (SRC (human)) [%]	kinase still bound, per cent of control (TAOK3 (human)) [%]	kinase still bound, per cent of control (PRKX (human)) [%]	kinase still bound, per cent of control (MARK1 (human)) [%]	kinase still bound, per cent of control (DAPK2 (human)) [%]	kinase still bound, per cent of control (CHEK2 (human)) [%]	kinase still bound, per cent of control (CDK3 (human)) [%]	kinase still bound, per cent of control (PRKCE (human)) [%]	kinase still bound, per cent of control (RIOK1 (human)) [%]	kinase still bound, per cent of control (MYO3B (human)) [%]	kinase still bound, per cent of control (NUAK1 (human)) [%]	kinase still bound, per cent of control [1] [%]	kinase still bound, per cent of control (MAP3K10 (human)) [%]	further results
OCCCNc1cc(-c2ccnc(Nc3cccc(Cl)c3)n2)ccn1	100	100	100	100	100	100	100	100	100	100	100	100	100	100	100	100	100	100	100	100	kinase still bound, per cent of control (MKNK1 (human)): 100%; kinase still bound, per cent of control (MAPKAPK5 (human)): 100%; kinase still bound, per cent of control (TNK1 (human)): 100%; kinase still bound, per cent of control (PRKACB (human)): 100%; kinase still bound, per cent of control (SRPK3 (human)): 100%; kinase still bound, per cent of control (PIM1 (human)): 100%; kinase still bound, per cent of control (MELK (human)): 100%; kinase still bound, per cent of control (ULK1 (human)): 100%; kinase still bound, per cent of control (MYLK (human)): 100%; kinase still bound, per cent of control (FYN (human)): 100%; kinase still bound, per cent of control (CaMK1 (human)): 100%; kinase still bound, per cent of control [2]: 100%; kinase still bound, per cent of control (EPHA7 (human)): 100%; kinase still bound, per cent of control (DAPK3 (human)): 100%; kinase still bound, per cent of control (CSNK1E (human)): 100%; kinase still bound, per cent of control (PAK6 (human)): 100%; kinase still bound, per cent of control (TNNI3K (human)): 100%; kinase still bound, per cent of control (PHKG1 (human)): 100%; kinase still bound, per cent of control (DYRK1B (human)): 4%; kinase still bound, per cent of control (AKT3 (human)): 100%
C=CC(=O)Nc1cccc(Nc2nc(N[C@H]3CC[C@H](N(C)C)CC3)nc3c2ncn3C(C)C)c1	89	70	100	44	100	82	43	4	28	100	94	37	60	95	52	31	100	93	9.1	84	kinase still bound, per cent of control (MKNK1 (human)): 32%; kinase still bound, per cent of control (MAPKAPK5 (human)): 87%; kinase still bound, per cent of control (TNK1 (human)): 100%; kinase still bound, per cent of control (PRKACB (human)): 100%; kinase still bound, per cent of control (SRPK3 (human)): 47%; kinase still bound, per cent of control (PIM1 (human)): 92%; kinase still bound, per cent of control (MELK (human)): 25%; kinase still bound, per cent of control (ULK1 (human)): 0.7%; kinase still bound, per cent of control (MYLK (human)): 55%; kinase still bound, per cent of control (FYN (human)): 23%; kinase still bound, per cent of control (CaMK1 (human)): 93%; kinase still bound, per cent of control [2]: 34%; kinase still bound, per cent of control (EPHA7 (human)): 100%; kinase still bound, per cent of control (DAPK3 (human)): 23%; kinase still bound, per cent of control (CSNK1E (human)): 0.1%; kinase still bound, per cent of control (PAK6 (human)): 47%; kinase still bound, per cent of control (TNNI3K (human)): 62%; kinase still bound, per cent of control (PHKG1 (human)): 57%; kinase still bound, per cent of control (DYRK1B (human)): 49%; kinase still bound, per cent of control (AKT3 (human)): 91%
